Assay results reported in ChEMBL document CHEMBL1201862, “PubChem BioAssay data set” (2004).
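Protocol summary: plate cells (96-well), add compound at 5 concentrations, incubate 48 h, interpolate endpoints linearly. The concentration for 50% growth inhibition is given as GI50.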 The source made the active and inactive calls. Cut-off read from the data, not from the text of the source: active = GI50 up to about 1.1 µM and inactive = higher.

How the values were obtained:
Assay in all cases: NCI tumour cell line growth inhibition, 48 h
NCI-H522 = system: NCI-H522
SN12C = system: SN12C
IGROV-1 = system: IGROV-1
DU-145 = system: DU-145
PC-3 = system: PC-3
TK-10 = system: TK-10
HOP-92 = system: HOP-92
NCI-H460 = system: NCI-H460
A549 = system: A549
RXF 393 = system: RXF 393
CAKI-1 = system: CAKI-1
CCRF-CEM = system: CCRF-CEM
NCI-H23 = system: NCI-H23
OVCAR-3 = system: OVCAR-3
UO-31 = system: UO-31
OVCAR-4 = system: OVCAR-4
MOLT-4 = system: MOLT-4
MCF7 = system: MCF7
OVCAR-5 = system: OVCAR-5
HCC 2998 = system: HCC 2998

| SMILES | GI50 (NCI-H522) | GI50 (SN12C) | GI50 (IGROV-1) | GI50 (DU-145) | GI50 (PC-3) | GI50 (TK-10) | GI50 (HOP-92) | GI50 (NCI-H460) | GI50 (A549) | GI50 (RXF 393) | GI50 (CAKI-1) | GI50 (CCRF-CEM) | GI50 (NCI-H23) | GI50 (OVCAR-3) | GI50 (UO-31) | GI50 (OVCAR-4) | GI50 (MOLT-4) | GI50 (MCF7) | GI50 (OVCAR-5) | GI50 (HCC 2998) |
| --- | --- | --- | --- | --- | --- | --- | --- | --- | --- | --- | --- | --- | --- | --- | --- | --- | --- | --- | --- | --- |
| CCn1c(-c2ccc(OC(C)=O)cc2)c(C)c2cc(OC(C)=O)ccc21 [ZINDOXIFENE] | 17.4 µM (inactive) | 27.5 µM (inactive) | 24 µM (inactive) | 18.5 µM (inactive) | 13.7 µM (inactive) | 20 µM (inactive) | 30.1 µM (inactive) | 6.04 µM (inactive) | 15.4 µM (inactive) | 6.82 µM (inactive) | 24.3 µM (inactive) | 23.3 µM (inactive) | 24.1 µM (inactive) | 16.7 µM (inactive) | 20.7 µM (inactive) | 18.1 µM (inactive) | 8.49 µM (inactive) | 18 µM (inactive) | 24.9 µM (inactive) | – |
| Oc1nc(S)nc2c1C(c1ccc(Cl)cc1)c1c(O)nc(S)nc1O2 | > 100 µM (inactive) | > 100 µM (inactive) | > 100 µM (inactive) | > 100 µM (inactive) | > 100 µM (inactive) | > 100 µM (inactive) | > 100 µM (inactive) | > 100 µM (inactive) | > 100 µM (inactive) | 0.514 µM (active) | 25.8 µM (inactive) | > 100 µM (inactive) | > 100 µM (inactive) | > 100 µM (inactive) | > 100 µM (inactive) | > 100 µM (inactive) | > 100 µM (inactive) | > 100 µM (inactive) | > 100 µM (inactive) | – |
| N/C(=N\c1ccc(Cl)cc1)NS(=O)(=O)c1cccc2nsnc12 | 5.92 µM (inactive) | 25.4 µM (inactive) | 23.7 µM (inactive) | 82.2 µM (inactive) | 17.4 µM (inactive) | 22.3 µM (inactive) | 16.1 µM (inactive) | 19.1 µM (inactive) | 52.1 µM (inactive) | > 100 µM (inactive) | – | – | 34.7 µM (inactive) | 44.3 µM (inactive) | 28.4 µM (inactive) | 15.2 µM (inactive) | 26.9 µM (inactive) | 36.2 µM (inactive) | 55.7 µM (inactive) | – |
| Oc1c(Cl)cc(CN(Cc2cc(Cl)c(O)c(Cl)c2)C2CCCCC2)cc1Cl | > 100 µM (inactive) | > 100 µM (inactive) | > 100 µM (inactive) | > 100 µM (inactive) | > 100 µM (inactive) | > 100 µM (inactive) | > 100 µM (inactive) | > 100 µM (inactive) | > 100 µM (inactive) | > 100 µM (inactive) | > 100 µM (inactive) | < 0.01 µM (active) | > 100 µM (inactive) | > 100 µM (inactive) | > 100 µM (inactive) | > 100 µM (inactive) | > 100 µM (inactive) | > 100 µM (inactive) | > 100 µM (inactive) | – |
| C=C(c1ccccc1)[C@@]1(O)CC[C@@H]1N(CC#N)Cc1ccccc1 | 20.6 µM (inactive) | 20.1 µM (inactive) | 36.1 µM (inactive) | 80.7 µM (inactive) | 22.9 µM (inactive) | 20.8 µM (inactive) | 18.7 µM (inactive) | 44.3 µM (inactive) | 32.9 µM (inactive) | 17.7 µM (inactive) | 18.9 µM (inactive) | 32 µM (inactive) | 23.1 µM (inactive) | 12.3 µM (inactive) | 26.7 µM (inactive) | 15.3 µM (inactive) | 26.3 µM (inactive) | – | 53.6 µM (inactive) | 21.2 µM (inactive) |
| CSc1nc(Nc2cccc(C(F)(F)F)c2)c2c(N)nn(C)c2n1 | 34 µM (inactive) | > 100 µM (inactive) | > 100 µM (inactive) | > 100 µM (inactive) | > 100 µM (inactive) | > 100 µM (inactive) | – | 50.9 µM (inactive) | 43.6 µM (inactive) | 20.5 µM (inactive) | > 100 µM (inactive) | 38.1 µM (inactive) | > 100 µM (inactive) | > 100 µM (inactive) | > 100 µM (inactive) | > 100 µM (inactive) | 49 µM (inactive) | – | > 100 µM (inactive) | 89.7 µM (inactive) |
| O=c1[nH]c(N/N=C\C(O)C(O)C(O)C(O)CO)nc2ccccc12 (stereo not given) | – | > 100 µM (inactive) | > 100 µM (inactive) | > 100 µM (inactive) | > 100 µM (inactive) | > 100 µM (inactive) | > 100 µM (inactive) | > 100 µM (inactive) | > 100 µM (inactive) | – | > 100 µM (inactive) | > 100 µM (inactive) | > 100 µM (inactive) | > 100 µM (inactive) | > 100 µM (inactive) | – | > 100 µM (inactive) | > 100 µM (inactive) | > 100 µM (inactive) | – |
| Cn1c2ccccc2n2c3ncccc3c(=S)c(C#N)c12 | > 100 µM (inactive) | > 100 µM (inactive) | > 100 µM (inactive) | > 100 µM (inactive) | > 100 µM (inactive) | – | – | 90.4 µM (inactive) | > 100 µM (inactive) | > 100 µM (inactive) | > 100 µM (inactive) | > 100 µM (inactive) | > 100 µM (inactive) | > 100 µM (inactive) | > 100 µM (inactive) | > 100 µM (inactive) | > 100 µM (inactive) | > 100 µM (inactive) | > 100 µM (inactive) | > 100 µM (inactive) |
